Laboratory results reported in patent US7745120B2, “Cell culture and method for screening for a compound useful in the treatment or prevention of hepatic cirrhosis” (Industrial Technology Research Institute, priority 2004, dated 2010).
“Also recorded” adds a separate entry of the source.

Columns and labels:
Format in all cases: cell-based, human
[1] = system: Huh-7PALB-EGFP and immortalized HSC coculture; test: methylene blue assay of cell activity in thioacetamide-damaged co-culture; details: interferon-α 1000, 5000, 10000 IU/ml added 3 hours before 100 mM thioacetamide; read after 24 hours; FIG. 11A
Experimental: Modified human HSCs and Huh-7 cells obtained from examples 1 and 6 were co-cultured via layer by layer culturing. Immortalized human HSCs were cultured in a 24-well culture plate, wherein each well was coated with extracellular matrix before use. The extracellular maxtrix used in the present example was Type I collagen or Matrigel. Six hours after the HSCs were attached, Huh-7 cells carrying albumin promoter (pLpLhyg-PAlb5/3-EGFP) (Huh-7PALB-EGFP) were subsequently cultured on the top of the attached HSCs.
One day later, 1000, 5000, 10000 IU/ml of interferon-α(F. Hoffman-La Roche, Ltd.) was added into cells respectively. Three hours later, 100 mM of thioacetamide (Sigma-Aldrich, Co.) was added to damage the cells. After 24 hours, methylene blue assay was conducted for analyzing the cell activity. In the meantime, the intensity of green fluorescence was determined by a fluorescence reader, and the result is shown in FIG. 11B.

[2] = system: Huh-7PALB-EGFP and immortalized HSC coculture; test: green fluorescence intensity (EGFP reporter under albumin promoter) by fluorescence reader in thioacetamide-damaged co-culture; details: interferon-α 1000, 5000, 10000 IU/ml added 3 hours before 100 mM thioacetamide; read after 24 hours; two independent experiments, average of 3 wells; FIG. 11B
Experimental: The fluorescence signal expressed from transfected cells of example 5 was observed under a fluorescence microscope, and the fluorescence intensity was analyzed by image analysis software. Fluorescence intensity of EGFP was determined by a fluorescence reader and an fluorescence ELISA reader. The excitation wavelength was 488 nm, and the emission wavelength was 510 nm while the green fluorescence from the EGFP gene was detected. When the red fluorescence from DsRed gene was detected, the excitation wavelength was 558 nm, and the emission wavelength was 583 nm. A flow cytometry (for example, FACSCalibur, Becton Dickinson, Inc.) can also be used to determine the intensity of fluorescence.
Modified human HSCs and Huh-7 cells obtained from examples 1 and 6 were co-cultured via layer by layer culturing. Immortalized human HSCs were cultured in a 24-well culture plate, wherein each well was coated with extracellular matrix before use. The extracellular maxtrix used in the present example was Type I collagen or Matrigel. […]
One day later, 1000, 5000, 10000 IU/ml of interferon-α(F. Hoffman-La Roche, Ltd.) was added into cells respectively. […] In the meantime, the intensity of green fluorescence was determined by a fluorescence reader, and the result is shown in FIG. 11B.

[3] = system: immortalized hepatocyte THLE-2 and immortalized HSC coculture; test: methylene blue assay of cell activity in thioacetamide-damaged co-culture of normal hepatocytes and HSCs; details: THLE-2 / HSC co-culture; interferon-α 1000, 5000, 10000 IU/ml added 3 hours before thioacetamide; read after another 24 hours; FIG. 11C
Experimental: To compare the cells in the present example with the normal hepatocytes and HSCs after drug treatment, immortalized human hepatocytes THLE-2 (ATCC NO: CRL-2706, normal primary hepatocytes immortalized by SV40 large T antigen gene) and untransfected human HSCs were co-cultured following procedures described as the above. After 24 hours, 1000,5000,10000 IU/ml of interferon-αwere added. Thioacetamide was applied to damage the cells after 3 hours. After another 24 hours, the cell activity was examined by methylene blue assay, and the result is shown as FIG. 11C. The result corresponds to that of the cell model for drug screening with pLpLhyg-PAlb5/3-EGFP transfected cells (FIG. 11A).

interferon-α
effect on damage from thioacetamide, methylene blue assay (cell activity) [1]: decreased the damage from thioacetamide; also recorded: decreased cell damaged by thioacetamide | effect on damage from thioacetamide, fluorescence intensity expressed by Huh-7PALB-EGFP [2]: decreased the damage from thioacetamide; also recorded: decreased cell damaged by thioacetamide | effect on damage from thioacetamide, methylene blue assay (cell activity) [3]: decreased the damage from thioacetamide
